Assay results taken from US6780887B1, “Anti-ischemic compounds” (Societe de Conseils de Recherches et d'Applications …, priority 1999, dated 2004).
“Also recorded” adds a separate entry of the source.

What was measured:
[1] = system: purified mitochondria obtained from rat livers; assay: In vitro mitochondrial respiration (stages III and IV, RCR) of purified mitochondria preincubated with compounds; assay type: biochemical; settings: for RCR increase (*): in % relative to the control brought to 100%; for Concentration (optimum concentration at which the effect was observed): RCR increase; for Concentration of maximum/optimal effect on RCR (optimal concentration in pre-incubation): rat liver mitochondria preincubated with compound; for Effect on mitochondria RCR (in words) / Effect on respiration stage IV (in words): in vitro
Procedure: The mitochondria are isolated according to the method described by Nowicki et al., J. of Cerebral Blood Flow and Metabolism 2, p. […] The mitochondrial respiration is measured by an oxygen electrode connected to a recorder. The RCR represents the respiratory control, and represents the ratio of the oxygen consumption in the presence of an endogenous substrate (glutamate/malate) to the consumption after ADP phosphorylation in ATP.
The RCR has been subsequently calculated.

heart mitochondria = assay: In vivo effect on heart mitochondria RCR after treatment of rats per os for one day; design: species or system rat
Procedure: The following day, the rats are sacrificed and their mitochondria are isolated from the heart. Their respiratory activity is measured every 15 minutes for the 75 minutes following the isolation procedure.

[2] = system: endothelial cells of the human umbilical vein; assay: Protection of ATP content in endothelial cells incubated under hypoxia; assay type: cell-based; settings: for Average maximum protection of the decrease in ATP content induced by hypoxia: endothelial cells
From the text: This variability is inherent to the experimental model. Indeed, for each experiment, a different culture is used from different umbilical cord isolated cells and there is a behaviour variability of the cells from one cord to another.

hepatic mitochondria = assay: In vivo effect on liver mitochondria RCR after treatment of rats per os for 5 days; design: species or system rat; settings: for Effect on respiration stage IV (in words): liver mitochondria
Procedure: Following the treatment, the rats are sacrificed. The mitochondria are isolated from the liver and their respiratory activity is measured every 15 minutes for the 75 minutes following the isolation procedure.

Promyelocyte cells = assay: Etoposide-induced apoptosis in promyelocyte cells; assay type: cell-based; settings: cells incubated with etoposide
Procedure: Promyelocyte cells are incubated in the presence of apoptosis-inducing agents like the etoposide, a type II topoisomerase inhibitor. After incubation, different parameters indicative of the apoptosis are detectable: caspase activation, cytochrome C release by the mitochondria, DNA fragmentation, etc.

[3] = Stability in human plasma (GC); assay type: in vitro ADME; settings: 24 hours, 37° C.
Procedure: The compounds of examples 1 and 2 have been submitted to stability tests in order to evaluate their behaviour when in contact with plasma after a 3 and 24 hour incubation at a temperature of 37° C. These tests have been performed using GC following the evolution of chromatograms of the different esters compared to an internal standard as a function of time.
The injection of GC/MF pure products has been performed in the following conditions:
injection temperature: 250° C.
initial temperature: 40° C.
final temperature: 250° C.
temperature gradient: 10° C./mn
The different compounds have been prepared as follows: 10 μl of pure compound have been dissolved in 100 μl plasma at a temperature of 37° C. The resulting solution is stirred. After a 3 or 24 hour period of time, 5 μl of internal standard (N-benzylamine) and 1 ml ether are added to the solution maintained at 37° C. The sample is centrifuged for 10 minutes at a rate of 13,000 rpm. 1 μl of the supernatant phase (ether phase) is injected in GC. The sample is then GC analyzed. […] No other peak optionally corresponding to metabolization products is observed.

[4] = system: neutrophil adherence to the endothelial cells; assay: Neutrophil adherence to endothelial cells incubated under hypoxia; assay type: cell-based, human; settings: 10^−8 mol/l
Procedure: After incubation, the cells are co-incubated with a non stimulated human neutrophil suspension.

[5] = 10^−6 M (optimum concentration)
[6] = 10^−7 M (optimum concentration)
[7] = endothelial cells under hypoxia

Molecule: Ethyl 2,6-dimethyl-N-phenylamido Ethanoate
- RCR increase (*) [1, 5]: 13%
- Concentration (optimum concentration at which the effect was observed) ([1]; rat liver mitochondria): 10^−6 M

Molecule: Ethyl N-phenylamido Ethanoate [Ethyl N-phenlyamido ethanoate]
- RCR increase (*) [1, 5]: 6.6%
- Concentration (optimum concentration at which the effect was observed) ([1]; rat liver mitochondria): 10^−6 M

Molecule: CCOC(=O)CN(C)C(=O)C1CCCCC1 [Ethyl N-methyl-N-cyclohexamido ethanoate, Ethyl N-methyl -N-cyclohexamido Ethanoate]
- RCR increase (*) [1, 6]: 15%
- Concentration (optimum concentration at which the effect was observed) ([1]; rat liver mitochondria): 10^−7 M

Molecule: Dicyclopenten-2-yl malonate [example 1]
- Heart mitochondria RCR increase (heart mitochondria; one-day treatment, 2.36 mg/kg): 41%
- Average maximum protection of the decrease in ATP content induced by hypoxia ([2]; 10^−4 mol/l to 10^−5 mol/l): 92.1%
- Concentration at which ATP protection becomes negligible [2, 7]: 10^−8 mol/l
- Protection of the decrease in ATP content induced by hypoxia (in words) [2, 7]: able to protect reproducibly
- Hepatic mitochondria RCR increase (hepatic mitochondria; 5 day treatment, 2.36 mg/kg): 25%
- RCR versus control (in words) (hepatic mitochondria; 5 days, dose higher than 2.36 mg/kg): falls slightly below the control values
- Effect on respiration stage IV (in words) (hepatic mitochondria; 5 days): clear decrease
- Concentration at which the RCR effect becomes negligible ([1]; rat liver mitochondria): 10^−9 mol/l
- Concentration of maximum/optimal effect on RCR (optimal concentration in pre-incubation) [1]: 10^−6 mol/l
- Effect on mitochondria RCR (in words) ([1]; rat liver mitochondria): have an action on the RCR; also recorded: significatively increases
- Effect on respiration stage IV (in words) ([1]; rat liver mitochondria): strongly decreases
- Apoptosis induction (in words) (Promyelocyte cells): apoptosis induction inhibition is observed
- Caspase 3 activation (Promyelocyte cells): inhibited
- Cytochrome C release by the mitochondria (Promyelocyte cells): inhibited
- DNA fragmentation (Promyelocyte cells): inhibited
- Stability in human plasma (GC peak of compound) [3]: still observed

Molecule: O=C(CC(=O)O[C@@H]1C=CCC1)O[C@@H]1C=CCC1 [di-(S)-cyclopenten-2-yl malonate, di-(S)-2-cyclopenten-2-yl malonate]
- RCR increase (*) [1, 5]: 18%
- Concentration (optimum concentration at which the effect was observed) ([1]; rat liver mitochondria): 10^−6 M

Molecule: C=CCOC(=O)C12CC1COC2=O (centres unmarked) [example 2, 2-propenyl-3-Oxa-2-Oxobicyclo[3.1.0]-hexane-1-carboxylate]
- Heart mitochondria RCR increase (heart mitochondria; one day treatment, 3.6 mg/kg): 56%
- Average maximum protection of the decrease in ATP content induced by hypoxia ([2]; 10^−4 mol/l): 92.5%
- Concentration at which ATP protection becomes negligible [2, 7]: 10^−6 mol/l
- Activity on liver mitochondria RCR (in words) (hepatic mitochondria; 5 days, 0.18 mg/kg): weakly active
- Mitochondria RCR increase (maximum) (hepatic mitochondria; 5 days, 3.6 mg/kg, liver): 17%
- Effect on respiration stage IV (in words) (hepatic mitochondria; 5 days): decrease
- Optimal concentration in pre-incubation (mass concentration) [1]: 0.0183 µg/mL
- Concentration of maximum/optimal effect on RCR (optimal concentration in pre-incubation) [1]: 10^−7 mol/l
- Effect on mitochondria RCR (in words) ([1]; rat liver mitochondria): have an action on the RCR
- Effect on respiration stage IV (in words) ([1]; rat liver mitochondria): decrease effect
- Maximum inhibition of hypoxia induced neutrophil adherence increase [4]: 71%
- Stability in human plasma (GC peak of compound) [3]: not found any more

Molecule: O=C(CC(=O)Nc1ccccc1)Nc1ccccc1 [N,N′-diphenylmalonamide, N-N′-diphenyl malonamide]
- RCR increase (*) [1, 6]: 5%
- Concentration (optimum concentration at which the effect was observed) ([1]; rat liver mitochondria): 10^−7 M
